The record followed here is US10023575B2, “Cyclic ether derivatives of pyrazolo[1,5-a]pyrimidine-3-carboxyamide” (Boehringer Ingelheim International GmbH, priority 2015, dated 2018).

Broadly, the IC50 is the concentration at which inhibition is half-maximal.

Some results are limits rather than exact numbers.

For one assay, the target named is PDE10 (Homo sapiens (Human), UniProt Q9Y233). Put plainly: Phosphodiesterase (PDE) 10 assay with fluorescent substrate (IMAP, fluorescence polarization). Format: biochemical. The note with it: labeled cAMP 30 nM. The method, then: (§1) The PDE reaction cleaves cAMP to AMP. The IMAP system (Molecular Device) using fluorescence polarization (FP) as detection principle was used to measure enzyme activity. A fluorescent labeled cAMP was used as substrate for the reaction, generating a labeled AMP. The fluorescent AMP binds specifically to the large M(III)-based nano-particles which reduces the rotational speed of the substrate and thus increases its polarization.
Sequence of PDE10 (Q9Y233 whole entry): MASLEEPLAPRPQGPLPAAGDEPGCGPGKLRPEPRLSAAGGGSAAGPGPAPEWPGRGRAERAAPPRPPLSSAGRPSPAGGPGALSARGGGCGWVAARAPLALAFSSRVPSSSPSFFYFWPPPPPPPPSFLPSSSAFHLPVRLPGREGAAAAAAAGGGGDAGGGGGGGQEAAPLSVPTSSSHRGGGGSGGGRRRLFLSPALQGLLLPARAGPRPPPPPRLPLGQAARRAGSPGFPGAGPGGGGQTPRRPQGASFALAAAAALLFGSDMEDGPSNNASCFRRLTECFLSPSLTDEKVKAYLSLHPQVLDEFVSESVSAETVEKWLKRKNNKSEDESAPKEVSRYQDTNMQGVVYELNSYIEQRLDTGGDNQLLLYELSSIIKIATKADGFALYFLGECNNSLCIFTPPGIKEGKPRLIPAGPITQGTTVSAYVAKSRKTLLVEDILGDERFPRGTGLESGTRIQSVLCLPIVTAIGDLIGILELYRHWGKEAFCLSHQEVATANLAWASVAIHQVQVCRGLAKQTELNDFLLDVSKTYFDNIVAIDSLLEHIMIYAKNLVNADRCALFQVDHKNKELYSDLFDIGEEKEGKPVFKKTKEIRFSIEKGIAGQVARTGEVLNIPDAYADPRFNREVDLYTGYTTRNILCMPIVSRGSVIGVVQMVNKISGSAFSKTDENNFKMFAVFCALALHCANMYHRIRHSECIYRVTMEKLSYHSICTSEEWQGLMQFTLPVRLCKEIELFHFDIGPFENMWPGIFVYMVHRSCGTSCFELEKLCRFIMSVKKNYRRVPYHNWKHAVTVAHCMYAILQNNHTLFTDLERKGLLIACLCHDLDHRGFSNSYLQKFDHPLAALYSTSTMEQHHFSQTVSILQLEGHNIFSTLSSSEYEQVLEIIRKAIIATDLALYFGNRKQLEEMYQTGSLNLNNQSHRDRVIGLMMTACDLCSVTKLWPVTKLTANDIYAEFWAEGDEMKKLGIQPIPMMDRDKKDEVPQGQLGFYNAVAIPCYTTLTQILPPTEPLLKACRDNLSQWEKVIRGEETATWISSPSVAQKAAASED
(§2) The inhibition of PDE 2A or 10 enzyme activity was assessed using IMAP-Phosphodiesterase-cAMP fluorescence labeled substrate (Molecular Devices, Order No. R7506), IMAP TR-FRET screening express (Molecular Devices, Order No. R8160, the TR-FRET component will not be used) and PDE 2A or PDE10 protein expressed upon baculovirus infection in SF9 cells. The cells were incubated after infection for ˜3 days and protein production was confirmed by Western Blot. The cells were collected by centrifugation and the pellet frozen in liquid nitrogen before it was resuspended in PBS containing 1% Triton X-100 and protease inhibitors. After 45 min incubation on ice, the cell debris was removed by centrifugation (13.000 rpm, 30 min).
(§3) All reactions were performed in 384 well plates, Perkin Elmer black optiplates and IMAP reaction buffer with 0.1% Tween20 (kit component)
(§4) Compounds were serial diluted in DMSO. With an intermediate dilution step with reaction buffer DMSO concentration was reduced to achieve 1% DMSO in the assay reaction. Setup of the assay started with 10 μl enzyme (˜10 ng/well, depending on prep. batch), 5 μl compound, reaction was started by addition of 5 μl labeled cAMP (30 nM, final concentration), immediately mixed for 15 seconds on a Eppendorf mixmate (2000 rpm) followed by an incubation at room temperature for 90 minutes in the dark. Reaction is stopped by adding of 60 μl binding buffer for FP/cAMP (kit component).
(§5) Each assay plate contained wells with vehicle controls (1% DMSO) for the measurement of non-inhibited reaction (=100% control) and wells without enzyme as 0% controls.

A further assay addresses PDE 2A (Homo sapiens (Human), UniProt O00408). Put plainly: Phosphodiesterase (PDE) 2A assay with fluorescent substrate (IMAP, fluorescence polarization). Format: biochemical. To be noted: labeled cAMP 30 nM, read-out: PDE2 IC50. The method, then: as §1, §2, §3, §4, §5
A general note: Polarisation of emitted light reports the rotation of a fluorescent probe.

Sequence of PDE 2A (O00408 whole entry, species assumed): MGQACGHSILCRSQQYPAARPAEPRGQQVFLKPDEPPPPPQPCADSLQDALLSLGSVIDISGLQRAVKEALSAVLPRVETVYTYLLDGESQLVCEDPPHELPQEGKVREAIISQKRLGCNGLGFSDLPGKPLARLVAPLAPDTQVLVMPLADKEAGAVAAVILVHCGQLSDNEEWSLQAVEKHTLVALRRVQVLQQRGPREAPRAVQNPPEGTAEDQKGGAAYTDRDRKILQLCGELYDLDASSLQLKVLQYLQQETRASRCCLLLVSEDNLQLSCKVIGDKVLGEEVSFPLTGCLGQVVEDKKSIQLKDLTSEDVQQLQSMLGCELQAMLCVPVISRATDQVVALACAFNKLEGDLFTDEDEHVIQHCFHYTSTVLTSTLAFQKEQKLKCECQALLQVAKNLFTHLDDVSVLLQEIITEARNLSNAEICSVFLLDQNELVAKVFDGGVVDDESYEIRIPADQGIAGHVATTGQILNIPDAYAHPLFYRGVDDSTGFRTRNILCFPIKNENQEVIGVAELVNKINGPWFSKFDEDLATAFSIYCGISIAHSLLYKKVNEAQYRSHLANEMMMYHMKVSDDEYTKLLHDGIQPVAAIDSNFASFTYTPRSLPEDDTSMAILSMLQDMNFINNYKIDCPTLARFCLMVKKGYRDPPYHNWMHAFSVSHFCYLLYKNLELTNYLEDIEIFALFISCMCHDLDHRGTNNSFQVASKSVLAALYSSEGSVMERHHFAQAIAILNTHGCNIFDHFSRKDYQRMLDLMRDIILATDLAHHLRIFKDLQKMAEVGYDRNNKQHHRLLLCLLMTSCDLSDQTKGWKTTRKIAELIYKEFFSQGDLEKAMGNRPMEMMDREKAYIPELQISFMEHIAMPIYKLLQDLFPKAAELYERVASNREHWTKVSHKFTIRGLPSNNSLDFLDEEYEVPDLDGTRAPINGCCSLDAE

Take `O=C(NC1(c2ccc(C(F)(F)F)cc2)CCCOC1)c1cnn2cc(C3CC3)cnc12` (racemic) [Example 32]: the IC50 was more than 10 µM against PDE10 and 0.067 µM at PDE 2A.
Consider `O=C(NC1(c2ccc(OC(F)(F)F)cc2)CCCOC1)c1cnn2cc(C3CC3)cnc12` (racemic) [Example 33], for which the IC50 at PDE10 was more than 10 µM; at PDE 2A it was 0.083 µM.
On to `O=C(NC1(c2ccc(C(F)(F)F)cc2F)CCOC1)c1cnn2cc(C3CC3)cnc12` (racemic) [Example 34], for which the figures for the IC50 at PDE10 and on PDE 2A were 10.8 µM and 0.027 µM, respectively.
`Cc1cnc2c(C(=O)NC3(c4ccc(C(F)(F)F)cc4)CCOC3)cnn2c1` (racemic) [Example 36] showed an IC50 against PDE10 of more than 10 µM.
As to `O=C(NC1(c2ccc(Cl)cc2F)CCOC1)c1cnn2cc(C3CC3)cnc12` (racemic) [Example 38], the figures for the IC50 against PDE10 and on PDE 2A were 6.71 µM and 0.331 µM, respectively.
For `Cc1cnc2c(C(=O)NC3(c4ccc(Cl)cc4F)CCOC3)cnn2c1` (racemic) [Example 39], in that order: more than 10 µM and 0.568 µM.
For `Cc1nn2cc(C3CC3)cnc2c1C(=O)NC1(c2ccc(C(F)(F)F)nc2)CCOC1` (racemic) [Example 42], in that order: 5.59 µM and 0.13 µM.
Turning to `Cc1cnc2c(C(=O)NC3(c4ccc(C(F)(F)F)cn4)CCOC3)c(C)nn2c1` (racemic) [Example 44], the IC50 on PDE 2A amounted to 0.84 µM.
For `Cc1cnc2c(C(=O)NC3(c4ccc(C(F)(F)F)cc4F)CCOCC3O)cnn2c1` (racemic) [Example 47], the half-inhibitory concentration (IC50) on PDE10 is more than 10 µM.
Regarding `O=C(N[C@]1(c2ccc(C(F)(F)F)cc2F)CCOC[C@H]1O)c1cnn2cc(C3CC3)cnc12` (racemic) [Example 48], the IC50 against PDE10 was determined as 6.62 µM; at PDE 2A it was 0.00135 µM.
Consider `O=C(N[C@]1(c2ccc(C(F)(F)F)cc2F)CCOC[C@@H]1O)c1cnn2cc(C3CC3)cnc12` (racemic) [Example 49], for which the IC50 against PDE10 is more than 10 µM; on PDE 2A it was 0.07 µM.
`Cc1cnc2c(C(=O)NC3(c4ccc(C(F)(F)F)nc4)CCOCC3O)cnn2c1` (racemic) [Example 50]: the IC50 against PDE10 was more than 10 µM; on PDE 2A, 0.596 µM.
Consider `Cc1nn2cc(C3CC3)cnc2c1C(=O)NC1(c2ncc(C(F)(F)F)cc2F)CCOCC1(C)O` (racemic) [Example 62], for which the IC50 on PDE 2A was 0.127 µM.
Regarding `Cc1cnc2c(C(=O)NC3(c4ccc(C(F)(F)F)cc4F)COCC3O)cnn2c1` (single isomer, unassigned) [Example 72], the IC50 against PDE10 was more than 10 µM.
The compound `Cc1cnc2c(C(=O)NC3(c4ccc(C(F)(F)F)cc4F)COCC3O)cnn2c1` (single isomer, unassigned) [Example 73] returned an IC50 against PDE10 of more than 10 µM.
As for `Cc1cnc2c(C(=O)NC3(c4ccc(C(F)(F)F)cc4F)COCC3O)cnn2c1` (single isomer, unassigned) [Example 74], the IC50 against PDE10 is more than 10 µM.
`Cc1cnc2c(C(=O)NC3(c4ccc(C(F)(F)F)cc4F)COCC3O)cnn2c1` (single isomer, unassigned) [Example 75] had an IC50 against PDE10 of more than 10 µM.
In the case of `Cc1cnc2c(C(=O)NC3(c4ccc(C(F)(F)F)nc4)CCOCC3O)cnn2c1` (single isomer, unassigned) [Example 87b], the IC50 at PDE 2A was 0.184 µM.
`Cc1cnc2c(C(=O)NC3(c4ccc(C(F)(F)F)cc4F)COCC3(C)O)cnn2c1` (single isomer, unassigned) [Example 92a]: on PDE10, the IC50 was more than 10 µM.
The compound `Cc1cnc2c(C(=O)NC3(c4ccc(C(F)(F)F)cc4F)COCC3(C)O)cnn2c1` (single isomer, unassigned) [Example 92b] came in with an IC50 against PDE10 of more than 10 µM.
Turning to `Cc1cnc2c(C(=O)NC3(c4ccc(C(F)(F)F)cc4F)COCC3(C)O)cnn2c1` (single isomer, unassigned) [Example 93a], at PDE10, the IC50 was more than 10 µM.
In the case of `Cc1cnc2c(C(=O)NC3(c4ccc(C(F)(F)F)cc4F)COCC3(C)O)cnn2c1` (single isomer, unassigned) [Example 93b], on PDE10, the IC50 was more than 10 µM.
`Cc1cnc2c(C(=O)NC3(c4ccc(C(F)(F)F)cc4F)COCC3(C)O)cnn2c1` (centres unmarked) [Example 58] registered an IC50 against PDE10 of more than 10 µM.
